Data published in PubChem BioAssay (NCI).
Several values for one entry are separate records, joined by “and”; a condition that tells them apart may be missing. Equal values may be shown once.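 1) Cells in 96-well plates. 2) Compound, 48 h, 5 concentrations. 3) Linear interpolation between surrounding doses. 4) Unreached endpoint = highest concentration. GI50 marks 50% less growth. TGI: concentration producing complete growth inhibition.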

Tests used:
Test in all cases: DTP human tumour cell line panel, 48 h
CCRF-CEM leukemia = tested on: CCRF-CEM leukemia
DU-145 prostate = tested on: DU-145 prostate
K-562 leukemia = tested on: K-562 leukemia
MCF7 breast = tested on: MCF7 breast
MDA-MB-231 breast = tested on: MDA-MB-231 breast
OVCAR-8 ovarian = tested on: OVCAR-8 ovarian
SK-MEL-28 melanoma = tested on: SK-MEL-28 melanoma
SK-MEL-5 melanoma = tested on: SK-MEL-5 melanoma
SR leukemia = tested on: SR leukemia
UACC-257 melanoma = tested on: UACC-257 melanoma

Row | SMILES | GI50 (CCRF-CEM leukemia) | TGI (CCRF-CEM leukemia) | GI50 (DU-145 prostate) | TGI (DU-145 prostate) | GI50 (K-562 leukemia) | TGI (K-562 leukemia) | GI50 (MCF7 breast) | TGI (MCF7 breast) | GI50 (MDA-MB-231 breast) | TGI (MDA-MB-231 breast) [µM] | GI50 (OVCAR-8 ovarian) | TGI (OVCAR-8 ovarian) [µM] | GI50 (SK-MEL-28 melanoma) | TGI (SK-MEL-28 melanoma) [µM] | GI50 (SK-MEL-5 melanoma) | TGI (SK-MEL-5 melanoma) | GI50 (SR leukemia) | TGI (SR leukemia) | GI50 (UACC-257 melanoma) | TGI (UACC-257 melanoma) [µM]
1 | COC(=O)C(NC(=O)c1ccccc1)c1ccc(OC)c(I)c1 (stereo not drawn) | 53.8 µM | > 100 µM | > 100 µM | > 100 µM | 35.6 µM | > 100 µM | 39.5 µM | > 100 µM | 27.2 µM | > 100 | > 100 µM | > 100 | 76.4 µM | > 100 | 44.2 µM | > 100 µM | 35.2 µM | > 100 µM | 48.3 µM | > 100
2 | COc1cc2nccc(Oc3ccc(NC(=O)C4(C(=O)Nc5ccc(F)cc5)CC4)cc3)c2cc1OC | > 10 µM and 3.65 µM | > 100 µM | > 10 µM and 5.47 µM | > 100 µM | 2.15 µM and 0.281 µM | > 10 µM and 2.82 µM | > 10 µM and 4.06 µM | > 54.2 µM | > 10 µM and 3.1 µM | > 40.6 | > 10 µM and 5.74 µM | > 100 | > 10 µM and 3.74 µM | > 79 | > 10 µM and 4.66 µM | > 100 µM | > 10 µM and 2.21 µM | > 23.7 µM | > 10 µM and 4.92 µM | > 74.7
3 | Cn1c(=O)c(Oc2ccc(F)cc2F)cc2cnc(NC3CCC(O)CC3)nc21 (stereo not drawn) | > 25 µM | > 25 µM | > 25 µM | > 25 µM | > 25 µM | > 25 µM | > 25 µM | > 25 µM | > 25 µM | > 25 | > 25 µM | > 25 | > 25 µM | > 25 | > 25 µM | > 25 µM | > 25 µM | > 25 µM | > 25 µM | > 25
4 | COc1ccc(S(=O)(=O)NCCCNc2nccc(-c3c(-c4ccc(F)cc4)nc4sccn34)n2)cc1 | 4.42 µM | > 100 µM | 7.14 µM | > 100 µM | 2.99 µM | > 100 µM | 2.74 µM | > 100 µM | 7.27 µM | > 100 | 4.3 µM | > 100 | 9.5 µM | > 100 | 5.49 µM | 74.9 µM | 3.69 µM | > 100 µM | 12.6 µM | > 100
5 | O=C(/C=C/N1CCN(c2cccc(Cl)c2)CC1)c1ccc(Cl)cc1 | 22.6 µM | 66.7 µM | 38.4 µM | > 100 µM | 28 µM | > 100 µM | 29.7 µM | > 100 µM | 30 µM | > 100 | 34.5 µM | > 100 | 39.9 µM | 91.2 | 16.5 µM | 31.5 µM | 26.1 µM | 59.3 µM | 23.8 µM | 63.5
6 | O=C(Nc1cccc(C(F)(F)F)c1)Nc1cc(S(=O)(=O)NC2CC2)ccc1-c1ccsc1 | 3.25 µM | 18.3 µM | 5.41 µM | 20.3 µM | 3.42 µM | 13.5 µM | 3.26 µM | 15 µM | 3.43 µM | 14.8 | 4.07 µM | 18.1 | 5.1 µM | 18.5 | 2.31 µM | 5.65 µM | 2.72 µM | 8.92 µM | 3.84 µM | 14.4
7 | Brc1ccc2c(c1)-c1ccccc1C1=NCCN12 | 1.74 µM | 4.93 µM | 1.09 µM | 10.9 µM | 0.857 µM | 5.1 µM | 0.552 µM | 10.9 µM | 1.73 µM | 4.29 | 0.573 µM | 12.1 | 1.8 µM | 3.63 | 1.52 µM | 3.24 µM | 0.753 µM | 3.83 µM | 1.59 µM | 4.51
8 | ClCc1ccc(Cn2cnc3nc(Cl)nc(Cl)c32)cc1 | 1.79 µM | 6.19 µM | 0.444 µM | 1.12 µM | 2.52 µM | > 28.8 µM | 0.663 µM | 2.36 µM | 0.444 µM | 0.926 | 1.84 µM | 3.66 | 1.86 µM | 4 | 0.801 µM | 3.75 µM | 4.16 µM | > 100 µM | 1.95 µM | 4.33
9 | Oc1ccc(/C=N/Nc2nnc(N/N=C/c3ccc(O)cc3O)c3ccccc23)c(O)c1 | 0.28 µM | 0.783 µM and 5.49 µM | 0.432 µM | 0.831 µM and 5.99 µM | 0.346 µM |  | 0.576 µM | 0.848 µM and 2.29 µM | 1.35 µM | > 46.2 | 0.494 µM |  | 0.552 µM | 5.26 | 0.413 µM | 0.744 µM and 3.19 µM | 0.205 µM | 0.592 µM and 0.719 µM | 1.84 µM | 7.73
10 | OCCn1c(-c2ccncc2)c(-c2ccc(F)cc2)c2ncccc21 | > 25 µM | > 25 µM | > 25 µM | > 25 µM | > 25 µM | > 25 µM | > 25 µM | > 25 µM | > 25 µM | > 25 | > 25 µM | > 25 | > 25 µM | > 25 | > 25 µM | > 25 µM | > 25 µM | > 25 µM | > 25 µM | > 25
11 | CC(=O)OC1CCC2(C)C(=CCC3C4CC(CN5CC5)C(=O)C4(C)CCC32)C1 (stereo not drawn) | 2.79 µM | 11.4 µM | 8.29 µM | 20.4 µM | 3.33 µM | 14.2 µM | 0.67 µM | 2.68 µM | 11.8 µM | 25 | 12.2 µM | 26.2 | 13.5 µM | 27.3 | 12.7 µM | 25.9 µM | 3.39 µM | 13.5 µM | 12.9 µM | 26.4
12 | O=C(Nc1cccc(C(F)(F)F)c1)Nc1ccc(OCc2nnc(-c3ccccc3)o2)c(F)c1 | 3.29 µM | 54.9 µM | 6.06 µM | 28.3 µM | 5.12 µM | 47.2 µM | 4.21 µM | 24.4 µM | 3.3 µM | 22.3 | 5.19 µM | 32.1 | 10.3 µM | 66.5 | 5.71 µM | 21.3 µM | 2.23 µM | 9.65 µM | 6.38 µM | 37.9
